# Reference: US6514946B1, “Macrolide antibiotics and treatment and prophylaxis of pasteurellosis using the same” (Zaidan Hojin Biseibutsu Kagaku Kenkyu Kai, priority 1999, dated 2003)
# Experiments:
# H. somnus = experiment: Bacteria separation test from nasal cavity swab; assay type: in vivo, cattle
# [1] = system: Bacillus subtilis NRRL B-558; experiment: Minimum inhibition concentration (MIC), agar double dilution method; assay type: cell-based; settings: Bacillus subtilis, NRRLB558
# Summary of the method: (§1)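 Compounds were serially double-diluted into Mueller Hinton agar, following the Japan Society of Chemotherapy standard, and the test strains were then grown on it. Pasteurella alone was tested on brain heart infusion agar.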
# Serratia marcescens = experiment: as above; assay type: cell-based; settings: Mueller hinton agar, read-out: MIC
# Summary of the method: (§2)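 Following the standard Japan Society of Chemotherapy procedure, MICs are determined by agar double dilution. Mueller Hinton medium serves for the non-Pasteurella bacteria, whereas Pasteurella gets brain heart infusion agar.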
# [2] = system: Staphylococcus aureus 193; experiment: as above; assay type: cell-based; settings: Mueller hinton agar, read-out: MIC
# Summary of the method: as §2
# [3] = system: Salmonella enteritidis 1891; experiment: as above; assay type: cell-based; settings: Salmonella enterica, Mueller hinton agar, read-out: MIC
# Summary of the method: as §2
# Proteus vulgaris OX19 = experiment: as above; assay type: cell-based; settings: Mueller hinton agar, read-out: MIC
# Summary of the method: as §2
# [4] = system: Pasteurella haemolytica BBPO101 N791; experiment: as above; assay type: cell-based; settings: Mannheimia haemolytica, BBPO101N791
# Summary of the method: as §1
# Escherichia coli NIHJ = experiment: as above; assay type: cell-based; settings: Mueller hinton agar, read-out: MIC
# Summary of the method: as §2
smiles,measurement,setting,value
"CC[C@H]1OC(=O)C[C@@H](O)[C@H](C)[C@@H](O[C@@H]2O[C@H](C)C(O)C(N(C)C)C2O)[C@@H](CCN2CC(C)CC(C)C2)C[C@@H](C)C(=O)/C=C/C(C)=C/[C@@H]1CO[C@@H]1OC(C)C(O)[C@@H](OC)C1OC (stereo partly drawn) [Tilmicosin, tilmicosin]",Separation rate (%) at completion (number of animal),H. somnus; at completion,0 (0/5) % (number of animal)
same,Separation rate (%) before administration (number of animal),H. somnus; before administration (baseline),0 (0/5) % (number of animal)
same,MIC,[1],1.56 µg/mL
same,MIC,Serratia marcescens,> 100 µg/mL
same,MIC,[2],0.39 µg/mL
same,MIC,[3],6.25 µg/mL
same,MIC,Proteus vulgaris OX19,100 µg/mL
same,MIC,[4],1.56 µg/mL
same,MIC,Escherichia coli NIHJ,25 µg/mL
